Laboratory results as given in EP1382597A2, “Steroid receptor modulator compounds and methods” (LIGAND PHARMACEUTICALS, INC., priority 1994, dated 1996).

What was measured:
[1] = biological target: T1, AR (Homo sapiens, UniProt P10275); assay: Co-transfection assay, AR antagonist activity; format: cell-based
T1 construct: expressed in transfected cells; host or cells: CV-1 cells, transient transfection

[2] = biological target: T1, AR; assay: Co-transfection assay, AR agonist activity; format: cell-based
[3] = biological target: T2, AR (Rattus norvegicus, UniProt P15207); assay: Immature castrated male rat model (antiandrogen activity); format: in vivo, rats (Sprague-Dawley); conditions: for %SV growth / %VP growth: 0 mg TP = 100; for SV (wet wt): seminal vesicles
T2 construct: from tissue; host or cells: live Sprague-Dawley rats; ventral prostate and seminal vesicles weighed
T2 sequence (P15207 1-902): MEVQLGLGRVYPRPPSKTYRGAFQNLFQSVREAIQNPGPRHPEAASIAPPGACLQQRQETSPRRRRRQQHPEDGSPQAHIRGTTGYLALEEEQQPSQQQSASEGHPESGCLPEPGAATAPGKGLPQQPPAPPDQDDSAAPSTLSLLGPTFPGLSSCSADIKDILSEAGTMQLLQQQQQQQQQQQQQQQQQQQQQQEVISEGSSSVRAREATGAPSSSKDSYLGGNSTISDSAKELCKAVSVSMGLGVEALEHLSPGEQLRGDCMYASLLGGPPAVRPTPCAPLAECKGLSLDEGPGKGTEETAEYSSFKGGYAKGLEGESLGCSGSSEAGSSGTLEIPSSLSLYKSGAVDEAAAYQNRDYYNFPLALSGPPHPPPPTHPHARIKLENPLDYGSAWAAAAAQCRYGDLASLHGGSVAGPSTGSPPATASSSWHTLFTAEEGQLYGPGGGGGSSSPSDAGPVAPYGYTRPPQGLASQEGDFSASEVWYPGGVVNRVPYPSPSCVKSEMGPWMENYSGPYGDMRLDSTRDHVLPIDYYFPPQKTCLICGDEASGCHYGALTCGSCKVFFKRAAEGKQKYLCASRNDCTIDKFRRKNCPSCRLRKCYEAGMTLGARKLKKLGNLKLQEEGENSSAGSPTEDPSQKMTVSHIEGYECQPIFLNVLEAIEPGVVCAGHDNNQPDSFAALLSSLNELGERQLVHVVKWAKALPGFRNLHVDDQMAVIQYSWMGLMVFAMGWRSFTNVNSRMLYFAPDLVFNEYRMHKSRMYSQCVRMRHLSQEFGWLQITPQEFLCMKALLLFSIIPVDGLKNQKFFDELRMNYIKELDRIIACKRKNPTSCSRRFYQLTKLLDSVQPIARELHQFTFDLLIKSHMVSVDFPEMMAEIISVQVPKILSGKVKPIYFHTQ
Text: Since the male sex organs are the tissues most responsive to modulation of androgen activity, this model is used to determine the androgen-dependent growth of the sex accessory organs in immature castrated rats.
At the end of the 3-day treatment, the animals were sacrificed, and the ventral prostates (VP) and seminal vesicles (SV) were collected and weighed. To compare data from different experiments, the sexual organ weights were first standardized as mg per 100 g of body weight, and the increase in organ weight induced by TP was considered as the maximum increase (100%). Super-anova (one factor) was used for statistical analysis.

[4] = biological target: T3, ER (Homo sapiens, UniProt P03372); assay: Co-transfection assay, ER antagonist activity; format: cell-based; conditions: for ER Antagonist CV-1 Cells Efficacy (%): percent maximal inhibition, estradiol at its EC50
T3 construct: expressed in transfected cells; host or cells: CV-1 cells, transient transfection, with MTV-ERE5-LUC reporter

[5] = biological target: T4, human PR-B (Homo sapiens, UniProt P06401); assay: Co-transfection assay, PR agonist activity; format: cell-based;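 also: CV-1 cells (African green monkey kidney) co-transfected with receptor plasmid and hormone-responsive firefly luciferase reporter, agonism read as compound-dependent rise in luciferase signal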
T4 construct: expressed in transfected cells; host or cells: CV-1 cells (African green monkey kidney fibroblasts), transient transfection
T4 sequence (P06401 1-933): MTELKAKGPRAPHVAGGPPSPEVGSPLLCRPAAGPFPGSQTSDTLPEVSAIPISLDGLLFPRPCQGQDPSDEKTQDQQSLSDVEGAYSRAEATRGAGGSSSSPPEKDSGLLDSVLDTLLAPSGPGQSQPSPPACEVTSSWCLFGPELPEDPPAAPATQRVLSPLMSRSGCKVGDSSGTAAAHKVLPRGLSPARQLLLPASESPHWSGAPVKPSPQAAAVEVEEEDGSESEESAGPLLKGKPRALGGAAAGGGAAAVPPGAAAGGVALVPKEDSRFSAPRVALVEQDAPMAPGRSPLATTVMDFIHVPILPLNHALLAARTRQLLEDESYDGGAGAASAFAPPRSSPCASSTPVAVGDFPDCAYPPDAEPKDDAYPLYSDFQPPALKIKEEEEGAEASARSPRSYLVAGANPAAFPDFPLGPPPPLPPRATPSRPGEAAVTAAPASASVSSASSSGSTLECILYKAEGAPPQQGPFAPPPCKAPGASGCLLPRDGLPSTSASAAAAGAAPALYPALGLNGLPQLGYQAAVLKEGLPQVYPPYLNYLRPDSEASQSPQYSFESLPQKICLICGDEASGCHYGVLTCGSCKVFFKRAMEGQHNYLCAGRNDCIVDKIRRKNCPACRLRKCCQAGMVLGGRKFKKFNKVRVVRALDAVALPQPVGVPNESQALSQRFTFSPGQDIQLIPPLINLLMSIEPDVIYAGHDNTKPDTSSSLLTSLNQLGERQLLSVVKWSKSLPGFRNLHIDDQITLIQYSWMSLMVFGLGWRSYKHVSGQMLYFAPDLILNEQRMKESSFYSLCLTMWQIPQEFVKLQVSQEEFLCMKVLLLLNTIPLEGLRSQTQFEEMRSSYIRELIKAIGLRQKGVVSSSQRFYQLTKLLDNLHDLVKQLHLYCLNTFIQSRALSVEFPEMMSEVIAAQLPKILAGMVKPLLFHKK

[6] = biological target: T4, human PR-B; assay: Co-transfection assay, PR antagonist activity; format: cell-based;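 also: monkey kidney fibroblasts co-transfected with receptor expression plasmid and hormone-responsive luciferase reporter, antagonism read as reduced luciferase signal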
[7] = CV-1 cells; percent maximal inhibition, DHT at its EC50
[8] = CV-1 cells; relative to reference agonist DHT
[9] = CV-1, read-out: AR Antagonist CV-1 Cells Efficacy (%)
[10] = CV-1, read-out: AR Agonist CV-1 Cells Efficacy (%)
[11] = 0.01 mg TP once daily for 3 days
[12] = 0.03 mg TP once daily for 3 days
[13] = 0.1 mg TP once daily for 3 days
[14] = 0.3 mg TP once daily for 3 days

T3 sequence (P03372 whole entry): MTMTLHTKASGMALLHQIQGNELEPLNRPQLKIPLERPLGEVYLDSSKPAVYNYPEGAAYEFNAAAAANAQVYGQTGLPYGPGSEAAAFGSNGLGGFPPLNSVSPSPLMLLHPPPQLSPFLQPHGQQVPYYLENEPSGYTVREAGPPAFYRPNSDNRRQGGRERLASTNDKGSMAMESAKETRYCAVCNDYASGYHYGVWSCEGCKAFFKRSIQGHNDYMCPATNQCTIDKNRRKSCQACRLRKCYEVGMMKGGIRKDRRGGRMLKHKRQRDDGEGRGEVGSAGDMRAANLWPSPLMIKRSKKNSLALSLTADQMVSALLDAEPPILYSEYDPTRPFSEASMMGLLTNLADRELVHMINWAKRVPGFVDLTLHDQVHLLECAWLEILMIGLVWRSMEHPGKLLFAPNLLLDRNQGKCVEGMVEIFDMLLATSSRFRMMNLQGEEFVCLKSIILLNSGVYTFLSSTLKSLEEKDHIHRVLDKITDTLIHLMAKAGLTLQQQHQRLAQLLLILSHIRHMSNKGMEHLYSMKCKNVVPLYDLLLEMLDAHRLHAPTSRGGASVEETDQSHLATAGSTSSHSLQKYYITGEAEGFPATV
T1 sequence (P10275 whole entry): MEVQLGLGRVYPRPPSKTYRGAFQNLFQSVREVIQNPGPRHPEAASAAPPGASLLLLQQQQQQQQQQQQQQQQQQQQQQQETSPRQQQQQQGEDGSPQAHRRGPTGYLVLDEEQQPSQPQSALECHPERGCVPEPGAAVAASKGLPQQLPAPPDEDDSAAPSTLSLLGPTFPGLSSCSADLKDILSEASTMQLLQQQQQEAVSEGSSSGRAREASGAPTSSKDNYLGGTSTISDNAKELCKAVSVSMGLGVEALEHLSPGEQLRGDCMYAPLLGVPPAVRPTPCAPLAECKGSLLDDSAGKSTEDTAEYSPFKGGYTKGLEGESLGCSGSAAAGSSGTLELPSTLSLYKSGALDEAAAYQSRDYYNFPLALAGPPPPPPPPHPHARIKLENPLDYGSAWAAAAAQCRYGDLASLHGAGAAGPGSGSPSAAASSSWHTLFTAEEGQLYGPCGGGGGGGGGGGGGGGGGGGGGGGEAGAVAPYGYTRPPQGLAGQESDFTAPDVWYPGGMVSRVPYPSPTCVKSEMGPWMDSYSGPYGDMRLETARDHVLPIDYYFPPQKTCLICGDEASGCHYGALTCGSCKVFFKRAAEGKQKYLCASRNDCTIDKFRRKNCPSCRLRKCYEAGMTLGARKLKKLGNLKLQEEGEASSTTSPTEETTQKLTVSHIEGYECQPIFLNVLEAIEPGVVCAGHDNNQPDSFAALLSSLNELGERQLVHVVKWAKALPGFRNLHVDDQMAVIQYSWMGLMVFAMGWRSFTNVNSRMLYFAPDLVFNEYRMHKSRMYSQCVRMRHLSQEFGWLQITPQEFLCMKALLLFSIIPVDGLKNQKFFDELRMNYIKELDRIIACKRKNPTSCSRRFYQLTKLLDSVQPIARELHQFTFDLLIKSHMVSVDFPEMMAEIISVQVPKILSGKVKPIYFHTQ

With `CC1=CC(C)(C)Nc2cc3[nH]c(=O)cc(C(F)(F)F)c3cc21` [Compound 247, 1,2-Dihydro-2,2,4-trimethyl-6-trifluoromethyl-8-pyridono[5,6-g]quinoline] the “AR Antagonist CV-1 Cells Efficacy (%)” value [1, 7] was 69% and the “AR Agonist CV-1 Cells Efficacy (%)” value [2, 8] was 23%.
`CC1=CC(C)(C)Nc2cc3c(cc21)c(C(F)(F)F)cc(=O)n3C` [Compound 261, 1,2-Dihydro-2,2,4,9-tetramethyl-6-trifluoromethyl-8-pyridono[5,6-g]quinoline] was tested, and the “effect on testosterone-mediated increases in the weights of VP and SV” value ([3]; administered simultaneously with 0.1 mg of TP) was “exhibited AR antagonist activity by suppressing the testosterone-mediated increases in the weights of the VP and SV”.
With `O=c1cc(C(F)(F)F)c2cc3c(cc2[nH]1)NCC3` [Compound 419, 5-Trifluoromethyl-7-pyridono[5,6-e]indoline] the “AR Antagonist CV-1 Cells Efficacy (%)” value [1, 7] was 74% and the “AR Agonist CV-1 Cells Efficacy (%)” value [2, 8] was 29%.
With `CC1=CC(C)(C)Nc2cc3oc(=O)cc(C(F)(F)F)c3cc21` [Compound 238, 1,2-Dihydro-2,2,4-trimethyl-6-trifluoromethyl-8-pyranono[5,6-g]quinoline] the Emax [1, 9] was < 20% and the Emax [2, 10] was 96%.
In the case of `CCC1CCNc2cc3oc(=O)cc(C(F)(F)F)c3cc21` (racemic) [Compound 414, (R/S)-4-Ethyl-1,2,3,4-tetrahydro-6-trifluoromethyl-8-pyranono[5,6-g]quinoline], the Emax [1, 9] is reported as < 20% and the Emax [2, 10] is reported as 118%.
`CC1=CC(C)(C)N(C)c2cc3oc(=O)cc(C(F)(F)F)c3cc21` [Compound 265, 1,2-Dihydro-1,2,2,4-tetramethyl-6-trifluoromethyl-8-pyranono[5,6-g]quinoline] was tested, and the Emax [1, 9] was 78% and the Emax [2, 10] was < 20%.
With `CC1C(=O)C(C)(C)Nc2cc3[nH]c(=O)cc(C(F)(F)F)c3cc21` (racemic) [Compound 418, (R/S)-1,2,3,4-tetrahydro-6-trifluoromethyl-2,2,4-trimethyl-8-pyridono[5,6-f]-3-quinolinone] the Emax [1, 9] was 63% and the Emax [2, 10] was < 20%.
With `CC1=CC(C)(C)Nc2ccc3c(c21)C(c1cccc(F)c1)Oc1ccccc1-3` (racemic) [Compound 191, (R/S)-5-(3-Fluorophenyl)-1,2-dihydro-2,2,4-trimethyl-5H-chromeno[3,4-f]quinoline] the IC50 [1] was 0.52 µM, the IC50 [4] was 0.33 µM and the “ER Antagonist CV-1 Cells Efficacy (%)” value [4] was 93%. For the same molecule, the Emax ([5]; CV-1, read-out: PR Agonist CV-1 Cells Efficacy (%)) was 26% and the Emax ([6]; CV-1, read-out: PR Antagonist CV-1 Cells Efficacy (%)) was 74%.
In the case of `CCC(=O)O[C@H]1CC[C@H]2[C@@H]3CCC4=CC(=O)CC[C@]4(C)[C@H]3CC[C@]12C` [TP, Testosterone Propionate], the “%SV growth” value [3, 11] is reported as 165.1%, the “%VP growth” value [3, 11] is reported as 146.5% and the “VP (wet wt)” value ([3]; 0.01 mg TP once daily for 3 days, castrated immature rats, ventral prostate (organ weights standardized as mg per 100 g body weight)) is reported as 15.4±0.6. The “SV (wet wt)” value [3, 11] was 12.3±0.8, the “%SV growth” value [3, 12] was 369.5% and the “%VP growth” value [3, 12] was 224.1%. For the same molecule, the “SV (wet wt)” value [3, 12] was 27.5±0.8, the “VP (wet wt)” value ([3]; 0.03 mg TP once daily for 3 days, ventral prostate) was 23.5±1.3 and the “SV (wet wt)” value ([3]; 0.1 mg TP once daily for 3 days (Table 8)) was 42.0±2.0. For the same molecule, the “VP (wet wt)” value ([3]; 0.1 mg TP once daily for 3 days (Table 8), ventral prostate) was 35.3±2.1, the “%SV growth” value [3, 13] was 563.8% and the “%VP growth” value [3, 13] was 337.0%. The “%SV growth” value [3, 14] was 616.1%, the “%VP growth” value [3, 14] was 415.9% and the “SV (wet wt)” value [3, 14] was 45.9±1.9. For the same molecule, the “VP (wet wt)” value ([3]; 0.3 mg TP once daily for 3 days, ventral prostate) was 43.6±1.1, the “%SV growth” value ([3]; 1 mg TP once daily for 3 days) was 684.6% and the “%VP growth” value ([3]; 1 mg TP once daily for 3 days) was 427.4%. For the same molecule, the “SV (wet wt)” value ([3]; 1 mg TP once daily for 3 days) was 51.0±5.4, the “VP (wet wt)” value ([3]; 1 mg TP once daily for 3 days, ventral prostate) was 44.8±3.7 and the “SV wt (% of TP (0.1) control)” value ([3]; TP (0.1) alone (Table 9)) was 100%. For the same molecule, the “VP wt (% of TP (0.1) control)” value ([3]; TP (0.1) alone (Table 9)) was 100%, the “SV (wet wt)” value ([3]; TP (0.1) alone (Table 9), 3 days) was 33.6±4.0 and the “VP (wet wt)” value ([3]; TP (0.1) alone (Table 9), 3 days, ventral prostate) was 25.5±1.2. For the same molecule, the “EC50 (increase in organ wet weights)” value ([3]; immature castrated rats, dosing for 3 days, VP and SV) was ~0.03 mg.
`COc1cccc(C2Oc3ccccc3-c3ccc4c(c32)C(C)=CC(C)(C)N4)c1` (racemic) [Compound 194, (R/S)-1,2-Dihydro-5-(3-methoxyphenyl)-2,2,4-trimethyl-5H-chromeno[3,4-f]quinoline] was tested, and the IC50 [4] was 0.39 µM and the “ER Antagonist CV-1 Cells Efficacy (%)” value [4] was 94%.
`CC1=CC(C)(C)Nc2cc3oc(=O)cc(C(F)(F)C(F)(F)F)c3cc21` [Compound 256, 1,2-Dihydro-2,2,4-trimethyl-6-(1,1,2,2,2-pentafluoroethyl)-8-pyranono[5,6-g]quinoline] was tested, and the Emax [1, 9] was 91% and the Emax [2, 10] was < 20%.
In the case of `CC1CC(C)(C)Nc2cc3[nH]c(=O)cc(C(F)(F)F)c3cc21` (racemic) [Compound 260, 1,2,3,4-Tetrahydro-2,2,4-trimethyl-6-trifluoromethyl-8-pyridono[5,6-g]quinoline], the “AR Antagonist CV-1 Cells Efficacy (%)” value [1, 7] is reported as 53%, the EC50 [5] is reported as > 10 µM and the IC50 [6] is reported as 0.23 µM.
In the case of `CC1(C)CNc2cc3[nH]c(=O)cc(C(F)(F)F)c3cc2C1` [Compound 437, 1,2,3,4-Tetrahydro-3,3-dimethyl-6-trifluoromethyl-8-pyridono[5,6-g]quinoline], the Emax ([1]; CV-1; read-out: AR Antagonist CV-1 Cells Efficacy (%)) is reported as 72% and the Emax ([2]; CV-1; read-out: AR Agonist CV-1 Cells Efficacy (%)) is reported as < 20%.
`CC1CC(C)(C)Nc2cc3oc(=O)cc(-c4ccoc4)c3cc21` (racemic) [Compound 405, (R/S)-5-(3-Furyl)-1,2,3,4-tetrahydro-2,2,4-trimethyl-8-pyranono[5,6-g]quinoline] was tested, and the Emax [1, 9] was 89% and the Emax [2, 10] was < 20%.
